Activity calls are given as the source filed them. A value given as a limit tells only on which side of the number the result lay.

The target in experiment [1] is T1, Mitochondrial peptide methionine sulfoxide reductase (Bos taurus, UniProt P54149).
T1 sequence (P54149 whole entry): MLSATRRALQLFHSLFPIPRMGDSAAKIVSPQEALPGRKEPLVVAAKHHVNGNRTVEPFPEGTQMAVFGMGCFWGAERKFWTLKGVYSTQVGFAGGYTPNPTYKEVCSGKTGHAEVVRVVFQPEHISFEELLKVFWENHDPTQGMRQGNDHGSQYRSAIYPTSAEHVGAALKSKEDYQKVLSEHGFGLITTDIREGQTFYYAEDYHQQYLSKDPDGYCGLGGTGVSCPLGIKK
Description: Absorbance-based biochemical high throughput dose response assay for activators of Methionine sulfoxide reductase A (MsrA). The experiment is classed as functional.

Experiment [2] relates to BJ. Description: cells. The experiment is classed as functional, cell-based. Conditions: Homo sapiens.
For experiment [3], the target named is Peroxisome proliferator-activated receptor gamma/Nuclear receptor coactivator 3 (Homo sapiens, UniProt P37231). The experiment is classed as functional.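 Further: agonist potency for raising coactivator recruitment to the receptor.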
Chain of Peroxisome proliferator-activated receptor gamma/Nuclear receptor coactivator 3 (P37231 whole entry): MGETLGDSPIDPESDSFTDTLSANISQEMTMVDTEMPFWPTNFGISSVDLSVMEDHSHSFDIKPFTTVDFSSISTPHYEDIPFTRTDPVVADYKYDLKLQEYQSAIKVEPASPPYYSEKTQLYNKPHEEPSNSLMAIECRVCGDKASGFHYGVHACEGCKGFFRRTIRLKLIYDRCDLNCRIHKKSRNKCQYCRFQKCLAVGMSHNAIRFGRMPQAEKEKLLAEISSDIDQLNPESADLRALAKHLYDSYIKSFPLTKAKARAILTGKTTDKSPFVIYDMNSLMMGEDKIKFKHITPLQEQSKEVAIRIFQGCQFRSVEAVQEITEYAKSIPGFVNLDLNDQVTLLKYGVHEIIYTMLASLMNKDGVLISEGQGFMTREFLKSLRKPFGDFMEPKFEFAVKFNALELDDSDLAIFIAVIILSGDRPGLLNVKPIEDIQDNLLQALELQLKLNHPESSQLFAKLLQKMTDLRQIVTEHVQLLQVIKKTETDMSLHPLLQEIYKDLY
Chain of Peroxisome proliferator-activated receptor gamma/Nuclear receptor coactivator 3 (Q9Y6Q9 whole entry, further chain): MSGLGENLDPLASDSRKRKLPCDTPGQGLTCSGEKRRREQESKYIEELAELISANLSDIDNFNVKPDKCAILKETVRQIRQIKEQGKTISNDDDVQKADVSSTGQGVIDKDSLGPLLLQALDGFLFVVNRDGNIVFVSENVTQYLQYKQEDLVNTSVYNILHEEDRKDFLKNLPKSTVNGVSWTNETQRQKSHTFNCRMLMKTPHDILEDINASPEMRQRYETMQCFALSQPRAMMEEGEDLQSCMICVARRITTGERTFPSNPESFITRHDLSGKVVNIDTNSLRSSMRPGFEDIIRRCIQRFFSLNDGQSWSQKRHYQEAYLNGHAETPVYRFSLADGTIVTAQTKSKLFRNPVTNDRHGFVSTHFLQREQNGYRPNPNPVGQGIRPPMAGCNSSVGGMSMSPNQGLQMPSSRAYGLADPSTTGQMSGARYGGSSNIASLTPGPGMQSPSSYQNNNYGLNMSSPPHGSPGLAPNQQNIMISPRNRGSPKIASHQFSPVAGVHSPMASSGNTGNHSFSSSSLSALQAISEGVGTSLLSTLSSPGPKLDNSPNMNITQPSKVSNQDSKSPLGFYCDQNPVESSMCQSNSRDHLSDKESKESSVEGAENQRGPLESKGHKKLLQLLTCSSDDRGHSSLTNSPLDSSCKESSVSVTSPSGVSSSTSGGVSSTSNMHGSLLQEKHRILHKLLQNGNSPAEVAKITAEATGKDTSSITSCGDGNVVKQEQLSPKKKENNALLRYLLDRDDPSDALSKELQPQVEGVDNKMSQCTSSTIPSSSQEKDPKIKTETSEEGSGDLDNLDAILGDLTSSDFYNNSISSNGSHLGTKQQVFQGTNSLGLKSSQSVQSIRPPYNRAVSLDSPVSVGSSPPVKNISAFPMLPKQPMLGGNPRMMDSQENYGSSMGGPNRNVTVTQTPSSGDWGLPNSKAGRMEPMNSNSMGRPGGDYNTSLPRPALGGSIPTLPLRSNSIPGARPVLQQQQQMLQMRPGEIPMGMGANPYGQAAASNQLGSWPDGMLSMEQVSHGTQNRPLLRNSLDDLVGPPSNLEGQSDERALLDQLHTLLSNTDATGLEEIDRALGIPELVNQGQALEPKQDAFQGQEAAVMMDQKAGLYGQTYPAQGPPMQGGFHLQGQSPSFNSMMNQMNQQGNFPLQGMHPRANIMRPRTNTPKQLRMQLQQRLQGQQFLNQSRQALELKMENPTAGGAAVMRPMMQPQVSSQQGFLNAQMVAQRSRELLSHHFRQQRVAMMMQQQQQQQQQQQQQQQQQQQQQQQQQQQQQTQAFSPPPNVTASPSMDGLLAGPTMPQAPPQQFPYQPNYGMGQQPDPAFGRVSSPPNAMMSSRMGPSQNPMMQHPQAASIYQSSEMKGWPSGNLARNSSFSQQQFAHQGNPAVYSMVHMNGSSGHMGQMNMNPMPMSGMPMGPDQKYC
Experiment [4] can be described thus: growth suppression of PTEN-null colon cells, dose response, cell-based, HCT116 PTEN knockout (AID 1047).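 Further: HCT116 colon tumor cells with PTEN knocked out; cells exposed to compound for 60 hours before readout; potency for loss of cell viability measured by luminescence.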 The experiment is classed as functional.
Experiment [5] in a line: growth suppression of beta-catenin-knockout colon cells, dose response, cell-based, HCT116, human colon tumor (AID 1045).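 Further: HCT116 colon tumor cells with beta catenin knocked out; cells exposed to compound for 60 hours.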 The experiment is classed as functional.
For experiment [6], the system named is BJ. Description: cytotoxicity toward Ras-transformed BJeLR fibroblasts, dose response, cell-based, alamar blue fluorescence, cherrypicked samples (AID 2631).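 Further: confirmatory dose-response assay in RAS-dependent BJ fibroblasts engineered with TERT, LT and ST, with cytotoxicity read by fluorescence.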 The experiment is classed as functional. Conditions: Homo sapiens. In general terms: Resazurin is reduced to fluorescent resorufin, in cell work by metabolically active cells.
The target in experiment [7] is Peroxisome proliferator-activated receptor gamma/Nuclear receptor coactivator 1 (Homo sapiens, UniProt P37231). The experiment is classed as functional.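 Further: agonist potency as compounds enhance coactivator SRC-1 recruitment to PPARgamma.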
Chain of Peroxisome proliferator-activated receptor gamma/Nuclear receptor coactivator 1 (P37231 whole entry): as the sequence (P37231 whole entry) above
Chain of Peroxisome proliferator-activated receptor gamma/Nuclear receptor coactivator 1 (Q15788 whole entry, further chain): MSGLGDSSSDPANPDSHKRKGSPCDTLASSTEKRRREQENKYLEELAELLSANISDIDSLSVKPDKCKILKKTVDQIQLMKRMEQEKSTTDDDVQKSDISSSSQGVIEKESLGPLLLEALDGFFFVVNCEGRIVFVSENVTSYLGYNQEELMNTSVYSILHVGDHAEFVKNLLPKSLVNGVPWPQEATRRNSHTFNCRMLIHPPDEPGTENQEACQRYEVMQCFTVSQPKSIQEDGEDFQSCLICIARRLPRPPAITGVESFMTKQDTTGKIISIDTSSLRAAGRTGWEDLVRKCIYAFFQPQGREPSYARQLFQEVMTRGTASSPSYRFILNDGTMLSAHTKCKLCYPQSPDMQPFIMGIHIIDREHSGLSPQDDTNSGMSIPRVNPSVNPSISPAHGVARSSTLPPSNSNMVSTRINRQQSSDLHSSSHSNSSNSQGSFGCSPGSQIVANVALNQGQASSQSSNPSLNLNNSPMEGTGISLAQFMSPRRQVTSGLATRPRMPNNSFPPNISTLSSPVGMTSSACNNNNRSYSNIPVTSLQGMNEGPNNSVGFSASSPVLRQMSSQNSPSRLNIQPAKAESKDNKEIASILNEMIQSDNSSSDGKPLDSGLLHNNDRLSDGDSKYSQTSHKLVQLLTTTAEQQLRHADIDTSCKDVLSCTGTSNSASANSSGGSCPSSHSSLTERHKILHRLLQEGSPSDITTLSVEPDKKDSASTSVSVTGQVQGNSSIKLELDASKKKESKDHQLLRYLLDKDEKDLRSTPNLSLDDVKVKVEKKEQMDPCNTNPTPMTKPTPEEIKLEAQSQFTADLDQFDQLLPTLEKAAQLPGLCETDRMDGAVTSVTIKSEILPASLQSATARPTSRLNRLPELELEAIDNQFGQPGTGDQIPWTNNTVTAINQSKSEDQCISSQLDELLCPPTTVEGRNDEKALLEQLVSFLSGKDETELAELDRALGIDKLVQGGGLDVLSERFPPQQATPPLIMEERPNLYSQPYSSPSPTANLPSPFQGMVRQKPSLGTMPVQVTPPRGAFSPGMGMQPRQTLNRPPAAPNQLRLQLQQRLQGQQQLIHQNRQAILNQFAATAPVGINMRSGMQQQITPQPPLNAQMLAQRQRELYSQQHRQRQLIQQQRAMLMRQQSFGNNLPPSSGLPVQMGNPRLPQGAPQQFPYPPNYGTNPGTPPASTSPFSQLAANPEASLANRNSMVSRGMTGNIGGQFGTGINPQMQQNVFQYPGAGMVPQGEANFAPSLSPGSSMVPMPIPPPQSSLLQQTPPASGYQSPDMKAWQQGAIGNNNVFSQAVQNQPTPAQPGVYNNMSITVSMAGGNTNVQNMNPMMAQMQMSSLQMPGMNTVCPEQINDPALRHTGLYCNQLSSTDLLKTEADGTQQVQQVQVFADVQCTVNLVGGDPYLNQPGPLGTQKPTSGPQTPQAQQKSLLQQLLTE
The subject of experiment [8] is BJ. Description: cytotoxicity toward BJ-TERT fibroblasts, dose response, cell-based, RAS-independent, luminescence (AID 1933). The experiment is classed as functional. The conditions noted are these: Homo sapiens.
In experiment [9] the target is T2, Replicative DNA helicase DnaB (Mycobacterium tuberculosis, UniProt P9WMR3).
T2 sequence (P9WMR3 whole entry): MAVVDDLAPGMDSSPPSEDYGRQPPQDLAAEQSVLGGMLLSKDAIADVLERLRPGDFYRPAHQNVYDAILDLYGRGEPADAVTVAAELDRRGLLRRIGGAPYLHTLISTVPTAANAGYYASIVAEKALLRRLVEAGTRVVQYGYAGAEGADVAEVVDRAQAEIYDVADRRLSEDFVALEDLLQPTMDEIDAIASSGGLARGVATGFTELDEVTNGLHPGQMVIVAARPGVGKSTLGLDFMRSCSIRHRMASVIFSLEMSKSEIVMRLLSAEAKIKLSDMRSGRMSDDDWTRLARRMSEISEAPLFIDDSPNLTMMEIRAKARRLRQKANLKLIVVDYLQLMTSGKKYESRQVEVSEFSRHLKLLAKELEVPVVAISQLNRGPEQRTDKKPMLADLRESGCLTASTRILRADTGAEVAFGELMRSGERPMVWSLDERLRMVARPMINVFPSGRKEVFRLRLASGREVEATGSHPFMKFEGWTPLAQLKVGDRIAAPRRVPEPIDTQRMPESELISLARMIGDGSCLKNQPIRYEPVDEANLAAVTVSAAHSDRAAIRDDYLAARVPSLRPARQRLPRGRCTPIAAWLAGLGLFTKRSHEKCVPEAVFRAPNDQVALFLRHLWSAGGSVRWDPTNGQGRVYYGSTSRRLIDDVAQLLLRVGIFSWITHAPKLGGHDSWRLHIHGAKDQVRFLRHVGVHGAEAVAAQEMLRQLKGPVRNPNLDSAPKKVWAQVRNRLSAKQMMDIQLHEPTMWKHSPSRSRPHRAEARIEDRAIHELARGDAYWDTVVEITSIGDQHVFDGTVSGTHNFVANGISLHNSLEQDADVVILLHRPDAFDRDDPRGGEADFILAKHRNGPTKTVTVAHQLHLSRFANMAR
Description: DnaB intein splicing inhibitors, dose response, biochemical, cell-free fluorescence (AID 449749). The experiment is classed as functional.

The target in experiment [10] is Peroxisome proliferator-activated receptor gamma/Nuclear receptor coactivator 2 (Homo sapiens, UniProt P37231). The experiment is classed as functional.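 Further: agonist potency for raising coactivator recruitment to the receptor.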
Experiment [11] can be described thus: microbe, parasite or virus in culture. The experiment is classed as functional. Conditions: Mycobacterium tuberculosis.
Experiment [12] in a line: cytotoxicity toward DRD oncogenic fibroblasts, dose response, cell-based, non-viral oncogenic, luminescence (AID 1934). The experiment is classed as functional. The conditions noted are these: Homo sapiens.
Experiment [13] relates to BJ. Description: cytotoxicity toward BJ-TERT-LT-ST fibroblasts, dose response, cell-based, RAS-independent, luminescence (AID 1935).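 Further: BJ fibroblasts immortalized with TERT plus LT and ST oncogenes.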 The experiment is classed as functional. Conditions: Homo sapiens.
For another experiment, the target named is T3, Protein RecA (Mycobacterium tuberculosis, UniProt P9WHJ3).
T3 sequence (P9WHJ3 whole entry): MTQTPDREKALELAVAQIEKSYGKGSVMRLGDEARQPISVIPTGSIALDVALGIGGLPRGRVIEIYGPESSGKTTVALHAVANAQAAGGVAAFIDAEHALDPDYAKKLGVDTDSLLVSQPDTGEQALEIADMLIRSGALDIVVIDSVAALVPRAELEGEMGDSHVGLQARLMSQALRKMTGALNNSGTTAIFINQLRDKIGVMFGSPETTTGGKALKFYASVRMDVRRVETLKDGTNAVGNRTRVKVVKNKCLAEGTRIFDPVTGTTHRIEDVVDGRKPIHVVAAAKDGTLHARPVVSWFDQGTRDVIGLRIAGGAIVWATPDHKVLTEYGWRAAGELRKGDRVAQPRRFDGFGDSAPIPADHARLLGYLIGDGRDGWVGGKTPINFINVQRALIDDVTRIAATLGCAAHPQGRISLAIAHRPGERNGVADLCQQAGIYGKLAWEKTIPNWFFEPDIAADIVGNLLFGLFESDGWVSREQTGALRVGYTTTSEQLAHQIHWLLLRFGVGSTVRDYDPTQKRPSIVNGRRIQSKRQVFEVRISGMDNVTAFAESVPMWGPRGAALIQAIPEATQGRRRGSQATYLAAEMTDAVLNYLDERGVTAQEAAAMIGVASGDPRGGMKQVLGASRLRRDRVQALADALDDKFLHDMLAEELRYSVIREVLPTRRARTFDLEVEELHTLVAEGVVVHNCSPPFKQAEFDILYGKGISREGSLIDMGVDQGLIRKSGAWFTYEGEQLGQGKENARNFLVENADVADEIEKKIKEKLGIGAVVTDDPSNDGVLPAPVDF
Description: Fluorescence Cell-Free Homogeneous Dose Retest to Identify Inhibitors of RecA-Intein Splicing Activity. [Related pubchem assays (depositor defined):AID2097, AID2223, AID489010, AID492950]. The experiment is classed as functional.

Experiment [14] addresses 72 kDa type IV collagenase (Homo sapiens, UniProt P08253). Description: Dose Response validation of uHTS RPN11 inhibitor hits using a MMP-2 Fluorescence assay. The experiment is classed as functional.
In experiment [15] the target is 26S proteasome non-ATPase regulatory subunit 14 (Homo sapiens, UniProt O00487). Description: inhibition of proteasome subunit RPN11 – biochemical, fluorescence polarization, uHTS hits, confirmation (AID 602368). The experiment is classed as functional. In general terms: Polarisation of emitted light reports the rotation of a fluorescent probe.
Chain of 26S proteasome non-ATPase regulatory subunit 14 (O00487 whole entry): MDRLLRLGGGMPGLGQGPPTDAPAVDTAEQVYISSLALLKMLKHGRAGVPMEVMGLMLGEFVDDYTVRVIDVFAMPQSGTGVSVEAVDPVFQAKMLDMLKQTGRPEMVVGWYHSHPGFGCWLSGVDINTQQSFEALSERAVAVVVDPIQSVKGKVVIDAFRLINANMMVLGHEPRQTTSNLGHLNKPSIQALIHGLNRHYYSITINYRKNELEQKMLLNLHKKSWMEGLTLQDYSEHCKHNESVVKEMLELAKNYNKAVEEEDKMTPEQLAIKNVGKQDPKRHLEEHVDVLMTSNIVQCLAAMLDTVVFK
For experiment [16], the target named is T4, DNA repair protein RAD52 homolog (Homo sapiens, UniProt P43351).
T4 sequence (P43351 whole entry): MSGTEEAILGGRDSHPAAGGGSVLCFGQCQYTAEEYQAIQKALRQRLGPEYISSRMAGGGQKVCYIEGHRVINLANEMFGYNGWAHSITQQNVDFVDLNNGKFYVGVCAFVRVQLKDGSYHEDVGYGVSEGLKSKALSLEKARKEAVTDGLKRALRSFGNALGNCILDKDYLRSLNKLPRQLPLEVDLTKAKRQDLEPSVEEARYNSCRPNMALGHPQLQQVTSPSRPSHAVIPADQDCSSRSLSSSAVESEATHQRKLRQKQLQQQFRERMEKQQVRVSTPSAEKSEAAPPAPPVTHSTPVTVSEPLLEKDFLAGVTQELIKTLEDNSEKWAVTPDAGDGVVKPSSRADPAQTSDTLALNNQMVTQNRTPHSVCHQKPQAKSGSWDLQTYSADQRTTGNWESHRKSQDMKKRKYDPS
The experiment is classed as functional, biochemical.

Experiment [17] has as its target T5, Heat shock factor protein 1 (Mus musculus, UniProt P38532).
T5 sequence (P38532 whole entry): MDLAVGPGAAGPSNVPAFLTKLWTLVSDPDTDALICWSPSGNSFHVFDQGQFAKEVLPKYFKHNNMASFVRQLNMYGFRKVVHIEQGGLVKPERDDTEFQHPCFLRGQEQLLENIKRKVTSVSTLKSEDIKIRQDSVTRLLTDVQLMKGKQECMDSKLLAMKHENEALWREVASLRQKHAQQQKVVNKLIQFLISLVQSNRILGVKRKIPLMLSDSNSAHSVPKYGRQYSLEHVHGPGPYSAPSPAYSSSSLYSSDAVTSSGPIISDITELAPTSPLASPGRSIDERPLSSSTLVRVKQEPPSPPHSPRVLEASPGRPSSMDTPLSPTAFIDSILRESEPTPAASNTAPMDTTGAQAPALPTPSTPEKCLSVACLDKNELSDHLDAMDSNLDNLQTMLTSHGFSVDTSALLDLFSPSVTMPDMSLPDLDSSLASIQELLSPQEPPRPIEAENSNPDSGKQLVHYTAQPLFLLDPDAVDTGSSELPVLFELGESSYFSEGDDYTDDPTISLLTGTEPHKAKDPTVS
Description: inhibition of MG132-induced HSE-luciferase signal, confirmation, cell-based, NIH3T3, luminescence, dose retest (AID 2382).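 Further: NIH3T3 fibroblasts with HSF1-driven luciferase reporter stressed by proteasome inhibitor MG132; luminescence from HSF1-driven luciferase expression after 8 hours of MG132 stress.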 The experiment is classed as functional.

For a further experiment, the target named is Prothrombin (Bos taurus, UniProt P00735). Description: thrombin inhibition, dose response, biochemical, fluorescence polarization, uHTS hits (AID 602369). The experiment is classed as functional.

Chain of 72 kDa type IV collagenase (P08253 whole entry): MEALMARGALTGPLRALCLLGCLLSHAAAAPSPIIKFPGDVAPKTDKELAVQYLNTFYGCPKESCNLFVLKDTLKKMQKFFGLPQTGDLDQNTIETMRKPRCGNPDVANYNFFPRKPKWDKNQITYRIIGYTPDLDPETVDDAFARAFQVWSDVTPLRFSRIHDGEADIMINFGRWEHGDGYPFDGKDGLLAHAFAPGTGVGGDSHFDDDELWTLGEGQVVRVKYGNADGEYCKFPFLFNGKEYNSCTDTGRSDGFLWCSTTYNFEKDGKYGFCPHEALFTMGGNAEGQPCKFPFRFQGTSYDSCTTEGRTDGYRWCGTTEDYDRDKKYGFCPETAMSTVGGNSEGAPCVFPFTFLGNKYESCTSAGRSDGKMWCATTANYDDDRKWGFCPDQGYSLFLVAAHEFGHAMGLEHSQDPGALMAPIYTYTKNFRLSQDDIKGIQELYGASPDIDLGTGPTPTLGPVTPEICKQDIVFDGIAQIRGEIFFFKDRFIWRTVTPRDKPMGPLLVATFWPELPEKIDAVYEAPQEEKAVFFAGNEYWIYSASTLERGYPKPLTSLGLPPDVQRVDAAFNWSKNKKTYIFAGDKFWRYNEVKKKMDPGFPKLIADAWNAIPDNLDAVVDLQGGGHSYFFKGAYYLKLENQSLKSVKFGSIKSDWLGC

Take `COc1ccc(OC)c(/C=N/N(CCC#N)C2=NS(=O)(=O)c3ccccc32)c1`: the EC50 in experiment [1] is > 104 µM (inactive).

With `O=c1c(Cl)nc2cc(Cl)ccc2n1CCNc1ncc(C(F)(F)F)cc1Cl`, the EC50 was 6.1 µM (inconclusive) with BJ [2]; 36.3 µM (not active) in [3]; 4.75 µM (active) in experiment [4]; 4.66 µM (active) in [5]; 0.574 µM (inconclusive) in the experiment on BJ [6]; 19.8 µM (not active) in [7]. The concentration giving a half-maximal response (EC50) is 2.67 µM (inconclusive) with BJ [8]; 20.1 µM (not active) in experiment [10]; 2.81 µM (inconclusive) in experiment [12]; 1.98 µM (active) with BJ [13]; 0.951 µM (active) on Protein RecA. For the same compound, in experiment [9], the AC50 was > 120 µM (inactive). In experiment [11], the CC50 was 11.5 µM (active).

Take `CCN1CCc2c(sc(NC(=O)c3cc4ccccc4cc3OC)c2C(N)=O)C1`: the concentration giving a half-maximal response (EC50) in the experiment with BJ [2] is 5.67 µM (inconclusive); with BJ [6], 0.937 µM (active); in the experiment on BJ [8], 4.46 µM (inconclusive); in experiment [17], 40.7 µM (active); in [12], 6.38 µM (active); in the experiment on BJ [13], 4.91 µM (inconclusive). In addition, the IC50 in [14] is > 100 µM (inactive); in experiment [15], 26.3 µM (active); on Prothrombin it was 32.5 µM (active). Also, in [16], the AC50 was 3.75 µM (active).

For orientation: EC50 means the midpoint of the concentration-response curve. As usually defined, the AC50 is the concentration at which the activity in the assay is half-maximal. For orientation: IC50 means the point on the concentration scale where inhibition reaches its midpoint.

The values above are taken from ChEMBL document CHEMBL1201862, “PubChem BioAssay data set” (2004).
